Data: patent publication US12227480B1 (priority 2023, dated 2025)

Columns and labels:
[1] = system: Mycobacterium tuberculosis MDR strain; experiment: microbe, parasite or virus in culture; assay type: cell-based; conditions: read-out: Anti-tubercular activity against Mycobacterium tuberculosis (MIC), MDR
[2] = system: Mycobacterium tuberculosis XDR strain; experiment: microbe, parasite or virus in culture; assay type: cell-based; conditions: read-out: Anti-tubercular activity against Mycobacterium tuberculosis (MIC), XDR

Cc1cc[n+](CC(=O)c2ccc(F)cc2)cc1.[Br-] [Compound 3d, 1-(2-(4-Fluorophenyl)-2-oxoethyl)-4-methylpyridin-1-ium bromide]
MIC [1]: 8 mg/L
MIC [2]: 32 mg/L
